Tested on: MV-4-11 cells
Experiment: Gene expression microarray analysis (Affymetrix PrimeView) and GSEA
Format: cell-based, human
Design: RFU PODN (11730768_x_at) / Fold change /veh PODN (11730768_x_at) / RFU LINC00158 (11744669_a_at) / Fold change /veh LINC00158 (11744669_a_at) / RFU DUSP10 (11751237_a_at) / Fold change /veh DUSP10 (11751237_a_at) / RFU ID3 (11757404_x_at) / Fold change /veh ID3 (11757404_x_at) / RFU PLEKHG5 (11737974_s_at) / Fold change /veh PLEKHG5 (11737974_s_at) / RFU LRRC4B (11730491_at) / Fold change /veh LRRC4B (11730491_at) / RFU GIMAP4 (11747438_a_at) / Fold change /veh GIMAP4 (11747438_a_at) / RFU KRT8 (11758183_x_at) / Fold change /veh KRT8 (11758183_x_at) / RFU CNN1 (11734310_a_at) / Fold change /veh CNN1 (11734310_a_at) / RFU VPS37D (11726825_at) / Fold change /veh VPS37D (11726825_at) / RFU C10orf10 (11716522_x_at) / Fold change /veh C10orf10 (11716522_x_at) / RFU KIR2DL2 /// KIR2DL4 /// KIR2DL5A /// KIR2DL5B /// KIR2DS1 /// KIR2DS2 /// KIR2DS3 /// KIR2DS4 /// KIR3DL3 /// KIR3DL3 /// KIR3DS1 (11738374_at) / Fold change /veh KIR2DL2 /// KIR2DL4 /// KIR2DL5A /// KIR2DL5B /// KIR2DS1 /// KIR2DS2 /// KIR2DS3 /// KIR2DS4 /// KIR3DL3 /// KIR3DL3 /// KIR3DS1 (11738374_at) / RFU C1QL1 (11718748_at) / Fold change /veh C1QL1 (11718748_at) / RFU TMPRSS4 (11747572_a_at) / Fold change /veh TMPRSS4 (11747572_a_at) / RFU HAMP (11756126_x_at) / Fold change /veh HAMP (11756126_x_at) / RFU RNFT2 (11725882_a_at) / Fold change /veh RNFT2 (11725882_a_at) / RFU NR4A2 (11747474_a_at) / Fold change /veh NR4A2 (11747474_a_at) / RFU ABCC12 (11746883_a_at) / Fold change /veh ABCC12 (11746883_a_at) / RFU TMEM136 (11760407_x_at) / Fold change /veh TMEM136 (11760407_x_at) / RFU CLDN22 /// WWC2 (11732394_at) / Fold change /veh CLDN22 /// WWC2 (11732394_at) / RFU HLA-DPB1 (11760878_x_at) / Fold change /veh HLA-DPB1 (11760878_x_at) / RFU SPINT1 (11716480_a_at) / Fold change /veh SPINT1 (11716480_a_at) / RFU GAP43 (11754022_s_at) / Fold change /veh GAP43 (11754022_s_at) / RFU A4GNT (11735810_at) / Fold change /veh A4GNT (11735810_at) / RFU PRB3 (11715151_x_at) / Fold change /veh PRB3 (11715151_x_at) / RFU TUBB4B (11761932_at) / Fold change /veh TUBB4B (11761932_at) / RFU CAPN14 (11732068_a_at) / Fold change /veh CAPN14 (11732068_a_at) / RFU TMCC2 (11721928_a_at) / Fold change /veh TMCC2 (11721928_a_at) / RFU IRGQ (11745062_a_at) / Fold change /veh IRGQ (11745062_a_at) / RFU FAM174B (11720279_a_at) / Fold change /veh FAM174B (11720279_a_at) / RFU TMPRSS4 (11748680_a_at) / Fold change /veh TMPRSS4 (11748680_a_at) / RFU FAM212B (11763350_a_at) / Fold change /veh FAM212B (11763350_a_at) / RFU PLEKHG5 (11743358_a_at) / Fold change /veh PLEKHG5 (11743358_a_at) / RFU ZSCAN30 (11745921_a_at) / Fold change /veh ZSCAN30 (11745921_a_at) / RFU CMKLR1 (11741424_a_at) / Fold change /veh CMKLR1 (11741424_a_at) / RFU LOC101060620 /// MAPK8IP1 (11723275_at) / Fold change /veh LOC101060620 /// MAPK8IP1 (11723275_at) / RFU SPTSSB (11747773_x_at) / Fold change /veh SPTSSB (11747773_x_at) / RFU PRSS12 (11739890_at) / Fold change /veh PRSS12 (11739890_at) / RFU BIN1 (11741810_x_at) / Fold change /veh BIN1 (11741810_x_at) / RFU WNT11 (11732464_a_at) / Fold change /veh WNT11 (11732464_a_at) / RFU C10orf10 (11716521_a_at) / Fold change /veh C10orf10 (11716521_a_at) / RFU C5orf56 (11738089_at) / Fold change /veh C5orf56 (11738089_at) / RFU CYB561 (11721691_x_at) / Fold change /veh CYB561 (11721691_x_at) / RFU ANKRD19P (11752326_a_at) / Fold change /veh ANKRD19P (11752326_a_at) / RFU OR2T12 /// OR2T33 /// OR2T8 (11738714_s_at) / Fold change /veh OR2T12 /// OR2T33 /// OR2T8 (11738714_s_at) / RFU VCAN (11748164_a_at) / Fold change /veh VCAN (11748164_a_at) / RFU JSRP1 (11732532_at) / Fold change /veh JSRP1 (11732532_at) / RFU KRTAP10-11 (11738290_x_at) / Fold change /veh KRTAP10-11 (11738290_x_at) / RFU MYO3A (11730013_a_at) / Fold change /veh MYO3A (11730013_a_at) / RFU EBF3 (11725865_a_at) / Fold change /veh EBF3 (11725865_a_at) / RFU CAMK2N1 (11719241_x_at) / Fold change /veh CAMK2N1 (11719241_x_at) / RFU C5orf56 (11738088_a_at) / Fold change /veh C5orf56 (11738088_a_at) / RFU OLFML3 (11715873_a_at) / Fold change /veh OLFML3 (11715873_a_at) / RFU LOC100653217 /// NTM (11731650_a_at) / Fold change /veh LOC100653217 /// NTM (11731650_a_at) / RFU MAPK11 (11762145_a_at) / Fold change /veh MAPK11 (11762145_a_at) / RFU FIZ1 (11724087_x_at) / Fold change /veh FIZ1 (11724087_x_at) / RFU OASL (11726364_x_at) / Fold change /veh OASL (11726364_x_at) / RFU SOX15 (11748057_x_at) / Fold change /veh SOX15 (11748057_x_at) / RFU CD79A (11719716_a_at) / Fold change /veh CD79A (11719716_a_at) / RFU HIST1H1D (11736915_at) / Fold change /veh HIST1H1D (11736915_at) / RFU CASKIN2 (11723855_a_at) / Fold change /veh CASKIN2 (11723855_a_at) / RFU LOC730098 (11760151_x_at) / Fold change /veh LOC730098 (11760151_x_at) / RFU OR4N2 (11742367_at) / Fold change /veh OR4N2 (11742367_at) / RFU PRRT2 (11749266_a_at) / Fold change /veh PRRT2 (11749266_a_at) / RFU SNX32 (11753110_a_at) / Fold change /veh SNX32 (11753110_a_at) / RFU CDHR5 (11726645_a_at) / Fold change /veh CDHR5 (11726645_a_at) / RFU RCAN1 (11760418_a_at) / Fold change /veh RCAN1 (11760418_a_at) / RFU FAM167A (11723789_a_at) / Fold change /veh FAM167A (11723789_a_at) / RFU FAM26E (11764081_at) / Fold change /veh FAM26E (11764081_at) / RFU ISYNA1 (11749810_s_at) / Fold change /veh ISYNA1 (11749810_s_at) / RFU ACY1 (11761880_at) / Fold change /veh ACY1 (11761880_at) / RFU 11764098_at / Fold change /veh 11764098_at / RFU SAMD14 (11745864_x_at) / Fold change /veh SAMD14 (11745864_x_at) / RFU NPB (11741838_a_at) / Fold change /veh NPB (11741838_a_at) / RFU TMPRSS6 (11731388_a_at) / Fold change /veh TMPRSS6 (11731388_a_at) / RFU KRTAP10-2 (11738614_at) / Fold change /veh KRTAP10-2 (11738614_at) / RFU ARHGAP8 /// PRR5-ARHGAP8 (11727945_x_at) / Fold change /veh ARHGAP8 /// PRR5-ARHGAP8 (11727945_x_at) / RFU KRTAP5-7 /// NADSYN1 (11734609_at) / Fold change /veh KRTAP5-7 /// NADSYN1 (11734609_at) / RFU RASL12 (11751679_a_at) / Fold change /veh RASL12 (11751679_a_at) / RFU CDKN2B (11736163_a_at) / Fold change /veh CDKN2B (11736163_a_at) / RFU PRF1 (11729649_at) / Fold change /veh PRF1 (11729649_at) / RFU, ZNF638 /// ZNF638-IT1 / Fold change vs veh, ZNF638 /// ZNF638-IT1 / RFU, PANK3 / Fold change vs veh, PANK3 / RFU, SH3YL1 / Fold change vs veh, SH3YL1 / RFU, ZEB2 / Fold change vs veh, ZEB2 / RFU, NRIP1 / Fold change vs veh, NRIP1 / RFU, PTTG1IP / Fold change vs veh, PTTG1IP / RFU, CAPN2 / Fold change vs veh, CAPN2 / RFU, MED14 / Fold change vs veh, MED14 / RFU, SNORA58 / Fold change vs veh, SNORA58 / RFU, C1orf63 / Fold change vs veh, C1orf63 / RFU, LRRFIP1 / Fold change vs veh, LRRFIP1 / RFU, NDUFAF7 / Fold change vs veh, NDUFAF7 / RFU, SLC12A2 / Fold change vs veh, SLC12A2 / RFU, IBTK / Fold change vs veh, IBTK / RFU, ESF1 / Fold change vs veh, ESF1 / Fold change vs veh, TMEM50B / RFU, TAOK1 / Fold change vs veh, TAOK1 / RFU, ACBD3 / Fold change vs veh, ACBD3 / RFU, TMA16 / Fold change vs veh, TMA16 / RFU, RWDD3 / Fold change vs veh, RWDD3 / RFU, BCAT1 / Fold change vs veh, BCAT1 / RFU, EDEM3 / Fold change vs veh, EDEM3 / RFU, TMEM33 / Fold change vs veh, TMEM33 / RFU, WDR75 / Fold change vs veh, WDR75 / RFU, AHCTF1 / Fold change vs veh, AHCTF1 / RFU, TFRC / Fold change vs veh, TFRC / RFU, ZDHHC17 / Fold change vs veh, ZDHHC17 / RFU, NOM1 / Fold change vs veh, NOM1 / RFU, ARL8B / Fold change vs veh, ARL8B / RFU, ZBTB11 / Fold change vs veh, ZBTB11 / RFU, TAMM41 / Fold change vs veh, TAMM41 / RFU, KIAA1704 /// LOC100996395 / Fold change vs veh, KIAA1704 /// LOC100996395 / RFU, ING1 / Fold change vs veh, ING1 / RFU, TRMT61B / Fold change vs veh, TRMT61B / RFU, FUBP3 / Fold change vs veh, FUBP3 / RFU, TP53 / Fold change vs veh, TP53 / RFU, TNKS2 / Fold change vs veh, TNKS2 / RFU, ZFP14 / Fold change vs veh, ZFP14 / RFU, ACTR2 / Fold change vs veh, ACTR2 / RFU, PPP3R1 / Fold change vs veh, PPP3R1 / RFU, PIK3R1 / Fold change vs veh, PIK3R1 / RFU, HNRNPA1 / Fold change vs veh, HNRNPA1 / RFU, RNF170 / Fold change vs veh, RNF170 / RFU, ZNF28 / Fold change vs veh, ZNF28 / RFU, RNGTT / Fold change vs veh, RNGTT / RFU, OGT / Fold change vs veh, OGT / RFU, BRD1 / Fold change vs veh, BRD1 / RFU, MARS / Fold change vs veh, MARS / RFU, ZNF655 / Fold change vs veh, ZNF655 / RFU, FAHD1 / Fold change vs veh, FAHD1 / RFU, BDP1 / Fold change vs veh, BDP1 / RFU, LRRCC1 / Fold change vs veh, LRRCC1 / RFU, ARID1A / Fold change vs veh, ARID1A / RFU, ZNF146 / Fold change vs veh, ZNF146 / RFU, ZNF330 / Fold change vs veh, ZNF330 / RFU, GPN3 / Fold change vs veh, GPN3 / RFU, C9orf123 / Fold change vs veh, C9orf123 / RFU, N4BP2L2 / Fold change vs veh, N4BP2L2 / RFU, ARFIP1 / Fold change vs veh, ARFIP1 / RFU, FAM179B / Fold change vs veh, FAM179B / RFU, BCL10 / Fold change vs veh, BCL10 / RFU, UHRF1BP1L / Fold change vs veh, UHRF1BP1L / RFU, BET1 / Fold change vs veh, BET1 / RFU, CNOT2 / Fold change vs veh, CNOT2 / RFU, ZNF268 / Fold change vs veh, ZNF268 / Fold change vs veh, ZNF507 / RFU, DGCR2 / Fold change vs veh, DGCR2 / RFU, WDSUB1 / Fold change vs veh, WDSUB1 / Fold change vs veh, HSP90B1 /// MIR3652 / RFU, ADSS / Fold change vs veh, ADSS / RFU, GK / Fold change vs veh, GK / RFU, ZNF148 / Fold change vs veh, ZNF148 / RFU, TAF9 / Fold change vs veh, TAF9 / RFU, SLC1A5 / Fold change vs veh, SLC1A5 / RFU, SLMO2 / Fold change vs veh, SLMO2 / RFU, ABCC4 / Fold change vs veh, ABCC4 / RFU, LOC101060439 /// RAP1B / Fold change vs veh, LOC101060439 /// RAP1B / RFU, RFX7 / Fold change vs veh, RFX7 / RFU, GTPBP10 / Fold change vs veh, GTPBP10 / RFU, CNEP1R1 / Fold change vs veh, CNEP1R1 / RFU, BIVM-ERCC5 /// ERCC5 / Fold change vs veh, BIVM-ERCC5 /// ERCC5 / RFU, ILF3 / Fold change vs veh, ILF3 / RFU 11762660_at / Fold change /veh 11762660_at / RFU VCAN (11757783_s_at) / Fold change /veh VCAN (11757783_s_at) / RFU DDX43 (11728927_at) / Fold change /veh DDX43 (11728927_at) / RFU KRT8 (11758188_x_at) / Fold change /veh KRT8 (11758188_x_at) / RFU NKD1 (11759106_at) / Fold change /veh NKD1 (11759106_at) / RFU SRD5A1 (11742802_a_at) / Fold change /veh SRD5A1 (11742802_a_at) / RFU TPSAB1 /// TPSB2 (11721975_s_at) / Fold change /veh TPSAB1 /// TPSB2 (11721975_s_at) / RFU GSTM3 (11746129_a_at) / Fold change /veh GSTM3 (11746129_a_at) / RFU IL23R (11737362_x_at) / Fold change /veh IL23R (11737362_x_at) / RFU TMEM51 (11727254_a_at) / Fold change /veh TMEM51 (11727254_a_at) / RFU PIWIL2 (11732686_x_at) / Fold change /veh PIWIL2 (11732686_x_at) / RFU ORM1 (11744905_x_at) / Fold change /veh ORM1 (11744905_x_at) / RFU CCDC152 (11743942_at) / Fold change /veh CCDC152 (11743942_at) / RFU ECM1 (11717891_a_at) / Fold change /veh ECM1 (11717891_a_at) / RFU IL23R (11748794_a_at) / Fold change /veh IL23R (11748794_a_at) / RFU TNFAIP8L3 (11732012_x_at) / Fold change /veh TNFAIP8L3 (11732012_x_at) / RFU MBOAT4 (11741988_at) / Fold change /veh MBOAT4 (11741988_at) / RFU 11764193_at / Fold change /veh 11764193_at / RFU TMEM53 (11763286_at) / Fold change /veh TMEM53 (11763286_at) / RFU MAGEB2 (11727129_at) / Fold change /veh MAGEB2 (11727129_at) / RFU TMEM200A (11744735_a_at) / Fold change /veh TMEM200A (11744735_a_at) / RFU CCDC152 (11751479_a_at) / Fold change /veh CCDC152 (11751479_a_at) / RFU FAM211A (11726209_a_at) / Fold change /veh FAM211A (11726209_a_at) / RFU RGS16 (11746705_a_at) / Fold change /veh RGS16 (11746705_a_at) / RFU VCAN (11755009_s_at) / Fold change /veh VCAN (11755009_s_at) / RFU RHOB (11743442_s_at) / Fold change /veh RHOB (11743442_s_at) / RFU RGS16 (11720943_a_at) / Fold change /veh RGS16 (11720943_a_at) / RFU RGS16 (11720944_at) / Fold change /veh RGS16 (11720944_at) / RFU, VPS4B / Fold change vs veh, VPS4B / RFU, CREB1 / Fold change vs veh, CREB1 / RFU, DNAJC13 / Fold change vs veh, DNAJC13 / RFU, GNAQ / Fold change vs veh, GNAQ / RFU, CDK5R1 / Fold change vs veh, CDK5R1 / RFU, ZRANB3 / Fold change vs veh, ZRANB3 / RFU, CUL4A / Fold change vs veh, CUL4A / RFU, CCNY / Fold change vs veh, CCNY / RFU, UFL1 / Fold change vs veh, UFL1 / RFU, COG3 / Fold change vs veh, COG3 / RFU, DIAPH2 / Fold change vs veh, DIAPH2 / RFU, SKA2 / Fold change vs veh, SKA2 / RFU, AFF3 / Fold change vs veh, AFF3 / RFU, LMF1 / Fold change vs veh, LMF1 / RFU, IPO11 / Fold change vs veh, IPO11 / RFU, DFFB / Fold change vs veh, DFFB / RFU, FOXP1 / Fold change vs veh, FOXP1 / RFU, CARD8 / Fold change vs veh, CARD8 / RFU, STRN3 / Fold change vs veh, STRN3 / RFU, ADK / Fold change vs veh, ADK / RFU, RASSF2 / Fold change vs veh, RASSF2 / RFU, WIPF1 / Fold change vs veh, WIPF1 / RFU, LARP1B / Fold change vs veh, LARP1B / RFU, RASA1 / Fold change vs veh, RASA1 / RFU, RB1 / Fold change vs veh, RB1 / RFU, PPFIA1 / Fold change vs veh, PPFIA1 / RFU, MAT2A / Fold change vs veh, MAT2A / RFU, CCT5 / Fold change vs veh, CCT5 / RFU, WDR92 / Fold change vs veh, WDR92 / RFU, CUX1 / Fold change vs veh, CUX1 / RFU, TTC7A / Fold change vs veh, TTC7A / RFU, TMEM135 / Fold change vs veh, TMEM135 / RFU, DEPTOR / Fold change vs veh, DEPTOR / RFU, CPM / Fold change vs veh, CPM / RFU, DNAJB6 / Fold change vs veh, DNAJB6 / RFU, CACNA2D3 / Fold change vs veh, CACNA2D3 / RFU, DTX4 / Fold change vs veh, DTX4 / RFU, TFCP2 / Fold change vs veh, TFCP2 / RFU, GMCL1 /// GMCL1P1 / Fold change vs veh, GMCL1 /// GMCL1P1 / RFU, AEBP2 / Fold change vs veh, AEBP2 / RFU, SNHG1 /// SNORD22 /// SNORD25 /// SNORD26 /// SNORD27 /// SNORD28 /// SNORD29 /// SNORD31 / Fold change vs veh, SNHG1 /// SNORD22 /// SNORD25 /// SNORD26 /// SNORD27 /// SNORD28 /// SNORD29 /// SNORD31 / Fold change (Aza/veh), C12orf56 (ProbeSet 11735607_a_at) / Fold change (ACY-1035/veh), C12orf56 (ProbeSet 11735607_a_at) / Fold change (Aza/veh), FGFR1OP (ProbeSet 11751329_s_at) / Fold change (ACY-1035/veh), FGFR1OP (ProbeSet 11751329_s_at) / Fold change (Aza/veh), VPS36 (ProbeSet 11739960_a_at) / Fold change (ACY-1035/veh), VPS36 (ProbeSet 11739960_a_at) / RFU SYPL1 (11715823_x_at) / Fold change /veh SYPL1 (11715823_x_at) / RFU IGFBP7 (11715501_s_at) / Fold change /veh IGFBP7 (11715501_s_at) / RFU REEP3 (11722064_at) / Fold change /veh REEP3 (11722064_at) / RFU IGLL1 (11728026_x_at) / Fold change /veh IGLL1 (11728026_x_at): dose or concentration left out as unconfirmed
Details: MV-4-11 cells, 48 hours

SMILES: Nc1ncn([C@@H]2O[C@H](CO)[C@@H](O)[C@H]2O)c(=O)n1 [azacitidine]
- Fold change /veh RGS16 (11746705_a_at): 1.56

From publication PMC5218480 (PLoS ONE, 2017)
